In the supplement of paper PMC11061612:

Columns and labels:
[1] = tested on: JURL-MK1 (Chronic Myelogenous Leukemia); assay: Bliss excess, mean over the matrix (fraction); higher = more synergy
In short: (§1)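 After 24 hours at 37°C and 5% CO2 in 1536-well plates, cells in DMEM/F12 or RPMI plus 10% FBS received two-drug dose matrices for 72 hours. Viability came from CellTiter-Glo 2.0 luminescence and was scaled as inhibition, anchored at 0 by vehicle wells and at 1 by blank wells. Combination Emax is taken as the second-highest inhibition in the matrix, and Bliss excess as the observed combination effect less EA + EB − EA·EB, with EA and EB the single-agent effects.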

[2] = tested on: NCI-H1648 (Lung Adenocarcinoma); assay: as above
In short: as §1

[3] = tested on: NCI-H1975 (Lung Adenocarcinoma); assay: as above
In short: as §1

[4] = tested on: NCI-H2009 (Lung Adenocarcinoma); assay: as above
In short: as §1

[5] = tested on: RPMI-8402 (T-Lymphoblastic Leukemia); assay: as above
In short: as §1

[6] = tested on: SK-MEL-24 (Melanoma); assay: as above
In short: as §1

[7] = tested on: A375 (Melanoma); assay: combination Emax (second highest fraction inhibited in the dose matrix, 72 h); higher = more inhibition; extreme values may be limits of the assay
In short: as §1

[8] = tested on: CAL-85-1 (Breast Carcinoma); assay: as above
In short: as §1

[9] = tested on: HT-3 (Cervical Carcinoma); assay: as above
In short: as §1

[10] = tested on: JJN-3 (Plasma Cell Myeloma); assay: as above
In short: as §1

[11] = tested on: MG-63 (Osteosarcoma); assay: as above
In short: as §1

[12] = tested on: MRK-nu-1 (Breast Carcinoma); assay: as above
In short: as §1

[13] = tested on: NCI-H1048 (Small Cell Lung Carcinoma); assay: as above
In short: as §1

[14] = tested on: NCI-H1648 (Lung Adenocarcinoma); assay: as above
In short: as §1

[15] = tested on: NCI-H2023 (Non-Small Cell Lung Carcinoma); assay: as above
In short: as §1

[16] = tested on: OVKATE (Ovarian Carcinoma); assay: as above
In short: as §1

[17] = tested on: SBC-3 (Small Cell Lung Carcinoma); assay: as above
In short: as §1

[18] = tested on: SNU-1 (Gastric Carcinoma); assay: as above
In short: as §1

[19] = tested on: SW1463 (Colorectal Carcinoma); assay: as above
In short: as §1
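Throughout, for Bliss excess, mean over the matrix: after 72 h of two-drug dosing.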

Row | Compound | Bliss excess [1] | Bliss excess [2] | Bliss excess [3] | Bliss excess [4] | Bliss excess [5] | Bliss excess [6] | combination Emax [7] | combination Emax [8] | combination Emax [9] | combination Emax [10] | combination Emax [11] | combination Emax [12] | combination Emax [13] | combination Emax [14] | combination Emax [15] | combination Emax [16] | combination Emax [17] | combination Emax [18] | combination Emax [19]
1 | C=CCn1c(=O)c2cnc(Nc3ccc(N4CCN(C)CC4)cc3)nc2n1-c1cccc(C(C)(C)O)n1 [AZD1775] + C[C@@H]1COCCN1C2=NC(=NC(=C2)C3(CC3)[S@](=N)(=O)C)C4=C5C=CNC5=NC=C4 [AZD6738] (first compound max 1 µM, partner max 10 µM) | 0.0515 | 0.0111 | 0.0451 | 0.0987 | 0.0379 | -0.0189 | 0.766 | 0.669 | 0.832 | 0.832 | 0.854 | 0.802 | 0.886 | 0.833 | 0.885 | 0.422 | 0.889 | 0.817 | 0.822
2 | C=CCn1c(=O)c2cnc(Nc3ccc(N4CCN(C)CC4)cc3)nc2n1-c1cccc(C(C)(C)O)n1 [AZD1775] + Nc1ccn([C@@H]2O[C@H](CO)[C@@H](O)C2(F)F)c(=O)n1 [Gemcitabine] (first compound max 1 µM, partner max 0.3 µM) |  | -0.0038 |  | 0.0606 | 0.0141 | 0.0069 | 0.966 | 0.697 |  |  | 0.955 | 0.688 |  | 0.643 | 0.656 | 0.261 | 0.949 |  | 0.763
3 | CN(CCO)CC[C@H](CSc1ccccc1)Nc1ccc(S(=O)(=O)NC(=O)c2ccc(N3CCC([C@@H](O)c4ccccc4-c4ccc(Cl)cc4)CC3)cc2)cc1S(=O)(=O)C(F)(F)F [AZD4320] + CS(=O)(=O)CCNCc1ccc(-c2ccc3ncnc(Nc4ccc(OCc5cccc(F)c5)c(Cl)c4)c3c2)o1 [Lapatinib] (first compound max 1 µM, 7x7, partner max 10 µM) |  | -0.0316 |  | -0.0017 | 0.0949 | 0.0316 | 0.413 | 0.957 |  |  | 0.596 | 0.387 |  | 0.952 | 0.301 | 0.677 | 0.407 |  | 0.974
4 | Cc1c2c(nn1C)CSCc1cc(n(C)n1)CSc1cc(c3ccccc3c1)OCCCc1c(C(=O)O)n(C)c3c-2c(Cl)ccc13 [AZD5991] + CC(=O)O[C@H]1C(=O)[C@@]2(C)[C@H]([C@H](OC(=O)c3ccccc3)[C@]3(O)C[C@H](OC(=O)[C@H](O)[C@@H](NC(=O)c4ccccc4)c4ccccc4)C(C)=C1C3(C)C)[C@]1(OC(C)=O)CO[C@@H]1C[C@@H]2O [Paclitaxel] (first compound max 1 µM, 7x7, partner max 3 µM) |  | -0.0144 |  | 0.0027 | 0.0139 | -0.0449 | 0.787 | 0.806 |  |  | 0.88 | 1 |  | 0.929 | 0.537 | 0.217 | 0.952 |  | 0.527
5 | Cc1c2c(nn1C)CSCc1cc(n(C)n1)CSc1cc(c3ccccc3c1)OCCCc1c(C(=O)O)n(C)c3c-2c(Cl)ccc13 [AZD5991] + CS(=O)(=O)CCNCc1ccc(-c2ccc3ncnc(Nc4ccc(OCc5cccc(F)c5)c(Cl)c4)c3c2)o1 [Lapatinib] (first compound max 1 µM, 7x7, partner max 10 µM) |  | -0.023 |  | -0.0136 | 0.0115 | -0.0651 | 0.318 | 0.825 |  |  | 0.157 | 1 |  | 0.895 | 0.284 | 0.307 | 0.28 |  | 0.51
6 | C[C@@H]1COCCN1c1cc(C2([S@](C)(=N)=O)CC2)nc(-c2ccnc3[nH]ccc23)n1 [AZD6738] + C1CC(C1)(C(=O)[O-])C(=O)[O-].N.N.[Pt+2] [Carboplatin] (first compound max 10 µM, 7x7, partner max 10 µM) |  | -0.0579 |  | -0.0556 | -0.0461 | -0.0748 | 0.521 | 0.382 |  |  | 0.524 | 0.6 |  | 0.571 | 0.608 | 0.211 | 0.647 |  | 0.409
7 | C[C@@H]1COCCN1c1cc(C2([S@](C)(=N)=O)CC2)nc(-c2ccnc3[nH]ccc23)n1 [AZD6738] + Nc1ccn([C@@H]2O[C@H](CO)[C@@H](O)C2(F)F)c(=O)n1 [Gemcitabine] (first compound max 10 µM, 7x7, partner max 0.3 µM) |  | 0.0542 |  | 0.0954 | 0.0319 | 0.0379 | 0.991 | 0.726 |  |  | 1 | 0.781 |  | 0.725 | 0.684 | 0.345 | 0.97 |  | 0.792
8 | C[C@@H](Nc1cc(F)cc(F)c1)c1cc(C(=O)N(C)C)cc2c(=O)cc(N3CCOCC3)oc12 [AZD8186] + CC(=O)c1c(C)c2cnc(Nc3ccc(N4CCNCC4)cn3)nc2n(C2CCCC2)c1=O [Palbociclib] (first compound max 10 µM, 7x7, partner max 10 µM) |  | 0.0672 |  | -0.0184 | 0.0013 | 0.0814 | 0.42 | 0.164 |  |  | 0.633 | 0.36 |  | 0.579 | 0.399 | 0.264 | 0.709 |  | 0.722
9 | C[C@@H](Oc1cc(-c2cnn(C3CCNCC3)c2)cnc1N)c1c(Cl)ccc(F)c1Cl [Crizotinib] + CC1=C(C(=CC=C1)Cl)NC(=O)C2=CN=C(S2)NC3=CC(=NC(=N3)C)N4CCN(CC4)CCO [Dasatinib] (first compound max 10 µM, 7x7, partner max 2 µM) |  | 0.0331 |  | 0.0662 | 0.0006 | -0.0523 | 0.502 | 0.778 |  |  | 0.949 | 0.218 |  | 0.908 | 0.607 | 0.572 | 0.957 |  | 0.133
10 | CS(=O)(=O)CCNCc1ccc(-c2ccc3ncnc(Nc4ccc(OCc5cccc(F)c5)c(Cl)c4)c3c2)o1 [Lapatinib] + Cn1cnc2c(F)c(Nc3ccc(Br)cc3Cl)c(C(=O)NOCCO)cc21 [Selumetinib] (first compound max 10 µM, 7x7, partner max 10 µM) |  | 0.116 |  | -0.0531 | -0.031 | 0.0129 | 0.736 | 0.85 |  |  | 0.453 | 0.441 |  | 0.764 | 0.297 | 0.31 | 0.321 |  | 0.868
11 | CS(=O)(=O)CCNCc1ccc(-c2ccc3ncnc(Nc4ccc(OCc5cccc(F)c5)c(Cl)c4)c3c2)o1 [Lapatinib] + NC1(c2ccc(-c3nc4ccn5c(=O)[nH]nc5c4cc3-c3ccccc3)cc2)CCC1 [MK-2206] (first compound max 10 µM, 7x7, partner max 10 µM) |  | 0.0349 |  | -0.0246 | 0.0064 | -0.0572 | 0.89 | 0.9 |  | 0.899 | 0.924 | 0.361 |  | 0.99 | 0.637 | 0.537 | 0.917 |  | 0.868
12 | O=C(c1cc(Cc2n[nH]c(=O)c3ccccc23)ccc1F)N1CCN(C(=O)C2CC2)CC1 [Olaparib] + CC1(C)CCC(CN2CCN(c3ccc(C(=O)NS(=O)(=O)c4ccc(NCC5CCOCC5)c([N+](=O)[O-])c4)c(Oc4cnc5[nH]ccc5c4)c3)CC2)=C(c2ccc(Cl)cc2)C1 [Venetoclax] (first compound max 10 µM, 7x7, partner max 1 µM) |  | -0.0403 |  | -0.0323 | -0.0163 | -0.0534 | 0.176 | 0.239 |  |  | 0.299 | 0.293 |  | 0.118 | 0.134 | 0.122 | 0.665 |  | 0.229
13 | O=C(c1cc(Cc2n[nH]c(=O)c3ccccc23)ccc1F)N1CCN(C(=O)C2CC2)CC1 [Olaparib] + CN(CC[C@H](CSC1=CC=CC=C1)NC2=C(C=C(C=C2)S(=O)(=O)NC(=O)C3=CC=C(C=C3)N4CCC(CC4)[C@H](C5=CC=CC=C5C6=CC=C(C=C6)Cl)O)S(=O)(=O)C(F)(F)F)CCO [AZD4320] (first compound max 10 µM, 7x7, partner max 1 µM) |  | -0.0497 |  | -0.0603 | 0.0077 | -0.0365 | 0.24 | 0.342 |  |  | 0.332 | 0.395 |  | 0.359 | 0.165 | 0.168 | 0.842 |  | 0.333
14 | O=C(c1cc(Cc2n[nH]c(=O)c3ccccc23)ccc1F)N1CCN(C(=O)C2CC2)CC1 [Olaparib] + Cc1c2c(nn1C)CSCc1cc(n(C)n1)CSc1cc(c3ccccc3c1)OCCCc1c(C(=O)O)n(C)c3c-2c(Cl)ccc13 [AZD5991] (first compound max 10 µM, 7x7, partner max 1 µM) |  | -0.0083 |  | -0.0445 | -0.0419 | -0.0478 | 0.163 | 0.168 |  |  | 0.216 | 1 |  | 0.384 | 0.12 | 0.0781 | 0.523 |  | 0.192
15 | CC1(C)CCC(CN2CCN(c3ccc(C(=O)NS(=O)(=O)c4ccc(NCC5CCOCC5)c([N+](=O)[O-])c4)c(Oc4cnc5[nH]ccc5c4)c3)CC2)=C(c2ccc(Cl)cc2)C1 [Venetoclax] + CS(=O)(=O)CCNCc1ccc(-c2ccc3ncnc(Nc4ccc(OCc5cccc(F)c5)c(Cl)c4)c3c2)o1 [Lapatinib] (first compound max 1 µM, 7x7, partner max 10 µM) |  | 0.04 |  | -0.0358 | -0.0163 | -0.0188 | 0.169 | 0.657 |  |  | 0.302 | 0.114 |  | 0.624 | 0.195 | 0.182 | 0.183 |  | 0.4
